Values quoted from earlier work, collected in patent US6479541B1, “Amiodarone-containing parenteral administration” (Baxter International, priority 2000, dated 2002).

Conditions: dogs, intravenous; literature Gough et al. 1982

For polysorbate 80 [Tween 80], the cardiodepression / hypotension is listed as “associated with cardiodepression, causing hypotension”.
